The subject of data set [1] is Plasmodium falciparum Dd2 asexual blood stage parasites. Put plainly: microbe, parasite or virus in culture. Particulars: 72 h. Also noted: species or system Plasmodium falciparum Dd2 in human erythrocytes; single determination (one 11-point concentration-response curve).
Data set [2] in a line: in vitro. As to conditions: human.
The mark [3] stands for this setting: Plasmodium falciparum, DD2, Erythrocyte, read-out: AC50.
[4] abbreviates: HepG2-A16-CD81EGFP cells, uninfected.
Where [5] appears, read: Plasmodium falciparum, DD2, Erythrocyte.

Read-outs that look alike come from different tables or passages of the source.

For the compound `C#CCN1c2ccccc2Sc2cccnc21` [MLS001166384-01], the AC50 in data set [1] (setting [3]) worked out at 6680 nM. In addition, the viability at 66 h in data set [2] (setting [4]) worked out at 99.6%.
In the same order, the values of `Cc1ccc(-n2c(C)cc(C(=O)OCC(=O)N(C)C3CCS(=O)(=O)C3)c2C)cc1` (stereo not drawn) [MLS000098265-01] are 4730 nM and 101%.
For `CCN(CC)CCC(c1ccc(OC)cc1)c1c(O)cc(OC)cc1OC` (stereo not drawn) [MLS000879488-01] the same measures were 6680 nM and 99.6%.
Regarding `CCCc1cc(=O)oc2cc(C)cc(OC(C)C(=O)NCC(O)c3ccccc3)c12` (stereo not drawn) [MLS001158075-01], the half-maximal activity concentration (AC50) in data set [1] (setting [3]) was 841 nM. For the same compound, in data set [2] (setting [4]), the viability at 48 h, 1 µM was 84% and the viability at 48 h, 3 µM stood at 88%.
On to `CCN(CC)C1=NC(=[N+](CC)CC)c2ccccc21.[O-][Cl+3]([O-])([O-])O` [MLS000565348-01], for which the AC50 in data set [1] (setting [3]) stood at 5310 nM. Moreover, the viability in data set [2] was 81.5%.
As to `O=C(c1ccc([N+](=O)[O-])o1)N1CCN(c2nc3c(F)cc(F)cc3s2)CC1` [MLS001234228-01], in data set [1] (setting [3]), the concentration at half-maximal activity (AC50) stood at 5960 nM. In data set [2] (setting [4]), the viability at 48 h, 1 µM came to 103% and the viability at 48 h, 3 µM amounted to 108%.
On to `Clc1ccc(-c2nnc(N3CCCC3)nn2)cc1` [MLS000038815-01], for which, in data set [1] (setting [3]), the AC50 is 531 nM. Further, the viability at 66 h in data set [2] (setting [4]) turned out to be 102%.
Regarding `COCCCNc1nc2cc(OC)c(OC)cc2c2nc(-c3ccccc3)nn12` [NCGC00112853-01], in data set [1] (setting [3]), the half-maximal activity concentration (AC50) was 237 nM. For the same compound, in data set [2] (setting [4]), the viability at 48 h, 1 µM is 105% and the viability at 48 h, 3 µM is 99%.
For `CCOc1ccccc1C1c2[nH]c3ccccc3c2C[C@H]2C(=O)N(C3CCN(Cc4ccccc4)CC3)CC(=O)N12` (stereo partly drawn) [MLS001215140-01] the same measures were 2370 nM, 106% and 101%.
`O=C(c1cnn2c(C(F)F)cc(-c3ccccc3)nc12)N1CCCCC1c1cccnc1` (stereo not drawn) [MLS000728797-01]: the AC50 in data set [1] (setting [3]) worked out at 8410 nM. Moreover, in data set [2] (setting [4]), the viability at 48 h was determined as 102% and the viability at 48 h, 1 µM is 102%.
As for `CC1Cc2nc(SCC(=O)Nc3ccc4c(c3)OCO4)n(-c3ccc(F)cc3)c(=O)c2S1` (stereo not drawn) [MLS000685016-01], in data set [1] (setting [3]), the AC50 amounted to 2990 nM. In data set [2] (setting [4]), the viability at 48 h, 1 µM was 97% and the viability at 48 h, 3 µM came to 93%.
For `Oc1ccccc1CN1CCCC(N2CCN(c3cccc(C(F)(F)F)c3)CC2)C1` (stereo not drawn) [MLS000998830-01] the same measures were 1330 nM, 103% and 105%.
In the same order, the values of `NNC(=O)CN1C(c2cccc(Cl)c2)=Nc2ccc(Br)cc2C1c1ccccc1` (stereo not drawn) [MLS000558682-01] are 2660 nM, 90% and 89%.
For `CCC(O)(CC)C(=O)NN(C(=O)Nc1csc2c1CCCC2)c1ccccc1` [MLS000554206-01] the same measures were 2990 nM, 98% and 95%.
Take `COc1ccc(NC(C)C(=O)Nc2cc(C(F)(F)F)ccc2N2CCOCC2)c(OC)c1` (stereo not drawn) [MLS000334848-01]: in data set [1] (setting [3]), the AC50 amounted to 841 nM. Besides, in data set [2] (setting [4]), the viability at 48 h, 1 µM stood at 100% and the viability at 48 h, 3 µM came to 91%.
For `COc1ccc(CNCC(O)(c2ccc(Cl)cc2)c2ccc(Cl)cc2)cc1` [MLS000325709-01] the same measures were 1500 nM, 98% and 96%.
In the same order, the values of `C=C(C)COc1ccc(-c2ncnc(C(F)(F)F)c2-c2ccccc2)c(O)c1` [MLS001216193-01] are 2370 nM, 104% and 97%.
In the same order, the values of `CCOc1cc(C(=O)N2CCC(CC3CC(c4cccc(Br)c4)=NO3)(C(=O)NCC3CCCCC3)CC2)cc(OCC)c1OCC` (stereo not drawn) [MLS001074456-01] are 1680 nM, 106% and 103%.
Consider `Cc1c(O)c(CN2CCCC2)cc2c1oc(=O)c1ccccc12` [MLS000081529-01], for which the AC50 in data set [1] (setting [3]) worked out at 2660 nM. For the same compound, in data set [2] (setting [4]), the viability at 48 h, 1 µM worked out at 108% and the viability at 48 h, 3 µM turned out to be 102%.
`CCc1cccc(-n2c(=O)c3cccnc3n2CC(=O)NCc2ccc(C)cc2)c1` [NCGC00128446-01] returned an AC50 in data set [1] (setting [5]) of 1680 nM. Moreover, the viability in data set [2] turned out to be 83.3%.
Turning to `Cc1ccc(S(=O)(=O)NC(=O)Nc2ccc(N(C)C)cc2)cc1` [MLS001098045-01], the half-maximal activity concentration (AC50) in data set [1] (setting [3]) was 1330 nM. In data set [2] (setting [4]), the viability at 48 h, 1 µM turned out to be 100% and the viability at 48 h, 3 µM was 99%.
Take `Cc1ccc(NC(=O)CC[S+](=O)([O-])c2cc(Br)cc3c2N(C(=O)C2CC2)CC3)cc1` [NCGC00107230-01]: the AC50 in data set [1] (setting [3]) stood at 2370 nM. In addition, in data set [2] (setting [4]), the viability at 66 h was determined as 101%.
`OC(CN1CCN(c2ccccn2)CC1)Cn1c2ccc(Cl)cc2c2cc(Cl)ccc21` (stereo not drawn) [MLS000529159-01]: in data set [1] (setting [3]), the AC50 is 2990 nM. The viability at 66 h in data set [2] (setting [4]) was found to be 102%.
In the same order, the values of `CCCCN(C(=O)c1ccco1)c1nnc(-c2cc(OC)c(OC)c(OC)c2)s1` [MLS000075381-01] are 2990 nM and 104%.
In the case of `COc1ccc([S+](=O)([O-])Nc2ccc(C)n(CC(=O)Nc3ccccc3)c2=O)cc1` [NCGC00430934-01], in data set [1] (setting [3]), the AC50 turned out to be 2660 nM. Further, in data set [2] (setting [4]), the viability at 66 h came out at 103%.
Turning to `CCC1(OC(=O)CN)C(=O)OCc2c1cc1n(c2=O)Cc2cc3ccccc3nc2-1` (stereo not drawn) [MLS000766263-01], half-maximal activity in data set [1] (setting [5]) (AC50) was put at 6680 nM. The viability in data set [2] stood at 24.7%.
Regarding `O=S(=O)(c1ccccc1)c1nnn2c1nc(NC1CCN(Cc3ccccc3)CC1)c1cc(Cl)ccc12` [MLS000925207-01], in data set [1] (setting [3]), the concentration at half-maximal activity (AC50) amounted to 2990 nM. Further, in data set [2] (setting [4]), the viability at 66 h worked out at 101%.
`Oc1ccc(C2NCc3ccccc3-n3cccc32)cc1Cl` (stereo not drawn) [MLS000878874-01]: the AC50 in data set [1] (read-out: AC50) came out at 1190 nM. For the same compound, the viability at 66 h in data set [2] is 108%.
On to `O=C(O)c1ccc(N/N=C/c2cn(-c3ccccc3)nc2-c2cccs2)cc1` [MLS000759699-01], for which, in data set [1] (setting [3]), the AC50 is 2660 nM. Moreover, in data set [2] (setting [4]), the viability at 48 h, 1 µM is 112% and the viability at 48 h, 3 µM stood at 103%.
As for `Clc1ccc2c(NCc3ccccn3)ccnc2c1` [MLS001178012-01], in data set [1] (setting [3]), the AC50 is 2110 nM. Also, the viability at 66 h in data set [2] (setting [4]) stood at 107%.
In the case of `COc1ccc(C(C(=O)Nc2ccc(C(C)C)cc2)N(Cc2ccco2)C(=O)CC2NC(=O)NC2=O)cc1` (stereo not drawn) [MLS000729756-01], in data set [1] (setting [3]), the concentration at half-maximal activity (AC50) was 6680 nM. Besides, in data set [2] (setting [4]), the viability at 48 h, 1 µM was found to be 99% and the viability at 48 h, 3 µM turned out to be 94%.
For `CCc1cc2c(=O)c(-c3cnn(-c4ccccc4)c3)c(C)oc2c(CN2CCCCC2)c1O` [MLS000530719-01] the same measures were 1330 nM, 105% and 105%.
For the compound `CCOCc1cnc(C)nc1NCC(=O)c1c(C)[nH]c2cc(C)ccc12` [MLS000595215-01], in data set [1] (setting [3]), the half-maximal activity concentration (AC50) was 4220 nM. In addition, in data set [2] (setting [4]), the viability at 48 h, 1 µM came out at 97% and the viability at 48 h, 3 µM was determined as 94%.
As for `CN(C)c1cc[n+](CC(=O)c2ccc(Br)cc2)cc1` [MLS000678949-01], the AC50 in data set [1] (setting [3]) is 7500 nM. Besides, the viability at 66 h in data set [2] (setting [4]) amounted to 103%.
As for `CCCCC(O)(c1ccc(CC)cc1)C(CN1CCOCC1)c1ccccc1` (stereo not drawn) [MLS001198887-01], the AC50 in data set [1] (setting [3]) was 4730 nM. Further, in data set [2] (setting [4]), the viability at 48 h, 1 µM is 88% and the viability at 48 h, 3 µM came out at 85%.
As to `CC(NCc1ccccc1)c1ccccc1O` (stereo not drawn) [MLS000850790-01], the AC50 in data set [1] (setting [3]) was found to be 5310 nM. Moreover, in data set [2] (setting [4]), the viability at 66 h amounted to 96.3%.
With `COc1ccc(CNCc2cc3c(C(C)(C)C)nn(-c4ccccc4)c3[nH]c2=O)cc1` [MLS000067276-01], the AC50 in data set [1] (setting [3]) stood at 841 nM. Moreover, in data set [2] (setting [4]), the viability at 48 h, 1 µM amounted to 103% and the viability at 48 h, 3 µM was determined as 109%.
For `O=C(NCCCNc1ccnc2cc(Cl)ccc12)c1ccccc1F` [MLS001215856-01] the same measures were 841 nM, 85% and 88%.
As to `Cc1cc(C)cc(N(CC(=O)NCc2ccc3c(c2)OCO3)C(=O)CCC(=O)Nc2ccccn2)c1` [MLS000032464-01], the AC50 in data set [1] (setting [3]) came to 4220 nM. The viability at 66 h in data set [2] (setting [4]) amounted to 96.4%.
Turning to `Cc1nc(N2CCC(C)CC2)c2c(C)c(C(=O)Nc3ccc(C(F)(F)F)cc3)sc2n1` [MLS000682669-01], the AC50 in data set [1] (setting [3]) turned out to be 7500 nM. In addition, in data set [2] (setting [4]), the viability at 48 h, 1 µM stood at 108% and the viability at 48 h, 3 µM was determined as 99%.
For `Cc1cc(C)cc(/N=C/c2[nH]c3ccc(Br)c(Cl)c3c2O)c1` [MLS000586008-01] the same measures were 11900 nM, 104% and 99%.
Regarding `CC(C)(C)c1ccc(O)c(CN2CCN(c3ccccc3)CC2)c1` [MLS000084717-01], in data set [1] (setting [5]), the AC50 worked out at 1500 nM. The viability in data set [2] is 98.2%.
Turning to `OC(CNC1CCCCCC1)COc1cccc2ccccc12` (stereo not drawn) [MLS001174634-01], the AC50 in data set [1] (setting [3]) was determined as 1880 nM. Besides, in data set [2] (setting [4]), the viability at 48 h, 1 µM came out at 103% and the viability at 48 h, 3 µM turned out to be 98%.
In the same order, the values of `O=S(=O)(c1ccc(Cl)cc1)N1CCN(/C(S)=N/c2ccccc2F)CC1` [MLS001002653-01] are 2370 nM, 97% and 94%.
For `CC(C)N1C(=S)N(Cc2ccco2)C(=O)C1CC(=O)Nc1ccccc1` (stereo not drawn) [MLS000729199-01] the same measures were 1680 nM, 99% and 109%.
For `Cc1c(C#N)c2ccccc2n1CCOc1ccccc1F` [MLS000113080-01] the same measures were 1680 nM, 100% and 97%.
Consider `COc1ccc(C2c3[nH]c4ccccc4c3C[C@H]3C(=O)N(C4CCN(Cc5ccccc5)CC4)CC(=O)N23)c(OC)c1` (stereo partly drawn) [MLS001213218-01], for which the half-maximal activity concentration (AC50) in data set [1] (setting [3]) came out at 2370 nM. For the same compound, in data set [2] (setting [4]), the viability at 48 h, 1 µM was determined as 106% and the viability at 48 h, 3 µM stood at 102%.

For the origin of these results see paper PMC7822874, “Chemoprotective antimalarials identified through quantitative high-throughput screening of Plasmodium blood and liver stage parasites” (Scientific Reports, 2021).
